We go through four molecules from US7371372B2, “Compositions comprising IMPDH inhibitors and uses thereof for treating HCV infection” (Vertex Pharmaceuticals Incorporated, priority 2004, dated 2008).

SMILES strings stand for the structures. In brackets after ≈: the same amount, converted by molar mass. Where two headings read alike, the source gives them in different places. Marks after values point to notes of the source that are not given here.

A short description of data set [1]: anti-viral activity (IC50av). The following applies: for IC50: read-out: IC50av. The data set is classed as cell-based.
From the text: The ratio of IC50av/IC50ap is the Conversion Factor (“CV”), useful in converting an anti-proliferative response into an anti-viral response.
In data set [2] the test system is HCV. The following applies: 1000 mg BID with PEGASYS, cited from earlier work.
The subject of data set [3] is peripheral blood lymphocytes (PBLs). As to the kind of experiment: anti-proliferative activity (IC50ap): inhibition of proliferation of peripheral blood lymphocytes. The data set is classed as cell-based. The following applies: for IC50: Lymphocyte. From the text: Our algorithm predicts that there exists an optimal balance between the antiproliferative activity and the antiviral activity for ribavirin in combination with IFN. […] Per our algorithm described above, a “conversion factor” of 12.25 needs to be applied to the APQ to account for antiviral effects as distinct from the antiproliferative effects of ribavirin. Thus the corrected APQ (i.e. AAQ) for ribavirin ranges from 0.3 to 1.6.

The conditions of data set [4]: cited from earlier work; for Cmin: estimated from Brunet et al.
The subject of data set [5] is IMPDH. The following applies: estimated from Brunet et al.; cited from earlier work.
Data set [6] in a line: plasma concentrations Cavg and Cmin of the IMPDH inhibitor in human. It counts as in vivo. From the text:
An optimal composition according to the present invention comprises alpha-interferon or a derivative thereof, an IMPDH inhibitor and a pharmaceutical carrier, wherein said IMPDH inhibitor is present in said composition in an amount such that a ratio of Cavg/Cmin is between 1 to 10; • wherein: • Cavg is average steady-state plasma concentration produced by said IMPDH inhibitor in said human; and • Cmin is estimated trough concentration produced by said IMPDH inhibitor in said human.
Cavg is equal to AUC/T, wherein AUC is the area under the plasma concentration-time curve during a dosing interval of time T. Cavg and Cmin are readily determined by known techniques in the art. See, e.g., Gibaldi, M. and Perrier, D., Pharmacokinetics, 2nd Ed., Marcel Dekker, Inc. (1982); Khakoo, S. et al., Br. J. Clin. Pharmacol.46, pp. 563-570 (1998); Glue, P., Sem. Liver. Dis. 19, pp. 17-24 (1999).

The subject of data set [7] is HCV. The following applies: cited from earlier work; for sustained response (SR): IFN + ribavirin, two phase III trials; for HCV RNA drop: Ribavirin 600 mg BID with INTRON A, SR data from McHutchison and Poynard (1999).
Data set [8] deals with HCV. The data set can be described thus: Interferon alpha 2b (INTRON A) and VX-497 in naive HCV patients, four week study (VX-497-003). It counts as in vivo, human. The following applies: for % HCV RNA drop: genotype 1 naive patients. The text has this: Given the lower FQ for RBV in table 2 above, once again a surprising result of lower FQ giving better antiviral effects is seen.

Where [9] appears, read: Ribavirin 200 mg BID, estimated from literature kinetics.
[10] abbreviates: Ribavirin 400 mg BID, estimated from literature kinetics.

For `COc1c(C)c2c(c(O)c1C/C=C(\C)CCC(=O)O)C(=O)OC2` [MPA, mycophenolic acid], the IC50 in data set [1] (anti-viral activity, micromolar IC50 converted to ng/mL using molecular weight of 320) came out at 0.122 µg/mL (≈ 0.381 µM); in data set [3] (in vitro, read-out: IC50ap (ng/mL) in vitro), 32 ng/mL. Besides, the “% HCV RNA drop” value is on record as 31^a, % in data set [2] (non-responders to REBETRON with 90% genotype 1 patients) and 72^b % in data set [2] (relapsers on REBETRON with 79% genotype 1 patients). For the same molecule, the Cmin is reported as 1630 ng/mL in data set [4] (MPA 500 mg BID), 1400 ng/mL in data set [4] (MPA 750 mg BID) and 2060 ng/mL in data set [4] (MPA 1000 mg BID). In addition, the Cavg in data set [4] (MPA 500 mg BID, from Brunet et al.) is 3163 ng/mL; in data set [4] (MPA 750 mg BID, from Brunet et al.), 3425 ng/mL; in data set [4] (MPA 1000 mg BID, median AUC(0-t)/dosing interval from Brunet et al.), 3869 ng/mL. The “IC50ap (ng/mL) in vivo” value in data set [5] is 10800 ng/mL (≈ 33.7 µM).
Consider `NC(=O)c1ncn([C@@H]2O[C@H](CO)[C@@H](O)[C@H]2O)n1` [Ribavirin, ribavirin], for which the Cavg is 3542 ng/mL in data set [6] (setting [9]); 7083 ng/mL in data set [6] (setting [10]); 19000 ng/mL in data set [6] (Ribavirin 600 mg BID, estimated from single dose kinetics (Glue) and accumulation factor (Khakoo), AUC(0-t)/dosing interval). The Cmin in data set [6] (setting [9]) is recorded as 740 ng/mL; in data set [6] (setting [10]) it was 1450 ng/mL; in data set [6] (Ribavirin 600 mg BID, estimated from literature kinetics) it was 2250 ng/mL. Besides, the results for the IC50 in data set [1] and in data set [3] (read-out: IC50ap) were 12 µg/mL (≈ 49 µM) and 976 ng/mL, respectively. Also, the “sustained response (SR)” value in data set [7] (genotype 1 patients) is on record as “around 30%”; in data set [7] (non-genotype 1 patients), around 60%. For the same molecule, the hemolytic anemia result in data set [7] (MTD of ribavirin) was “significant hemolytic anemia”. Besides, the “HCV RNA drop” value in data set [7] (genotype 1) is 30%^a,; in data set [7] (non-genotype 1) it was 60%^b. Besides, the “change in SR on dropping the ribavirin dose by one-half” value in data set [7] (to 600 mg daily, with IFN) is recorded as “no significant change in SR”.
In turn, `COc1cc(NC(=O)Nc2cccc(CNC(=O)O[C@H]3CCOC3)c2)ccc1-c1cnco1` [VX-497] yielded an IC50av in data set [1] (anti-viral activity, micromolar IC50 converted to ng/mL using molecular weight 452) of 0.14 µg/mL (≈ 0.309 µM). Further, the “% HCV RNA drop” value stood at 53% in data set [8] (VX-497 100 mg TID with INTRON A for 4 weeks) and 50% in data set [8] (VX-497 300 mg TID with INTRON A for 4 weeks). In data set [8] (with 3 MU IFN alpha 2b tiw, four weeks, baseline HCV RNA as covariate), the “reduction in viral load, 100 mg TID compared with 300 mg TID” value was “higher reduction in viral load”. The IC50ap in data set [3] worked out at 0.045 µg/mL.
In the case of `COc1c(C)c2c(c(O)c1C/C=C(\C)CCC(=O)OCCN1CCOCC1)C(=O)OC2` [mycophenolate mofetil], the “proportion of patients achieving significant antiviral effects, compared to PEGASYS and RBV” value in data set [2] (four-week analysis) is given as “lower proportion of patients achieving significant antiviral effects”.
